For one data set, the target named is CYP2C19 (Homo sapiens, UniProt P33261). Nature of the data set: CYP2C19 Inhibition (HLM, omeprazole substrate).
The target in data set [1] is T1, CYP2B6 (Homo sapiens, UniProt P20813).
T1 sequence (P20813 1-491): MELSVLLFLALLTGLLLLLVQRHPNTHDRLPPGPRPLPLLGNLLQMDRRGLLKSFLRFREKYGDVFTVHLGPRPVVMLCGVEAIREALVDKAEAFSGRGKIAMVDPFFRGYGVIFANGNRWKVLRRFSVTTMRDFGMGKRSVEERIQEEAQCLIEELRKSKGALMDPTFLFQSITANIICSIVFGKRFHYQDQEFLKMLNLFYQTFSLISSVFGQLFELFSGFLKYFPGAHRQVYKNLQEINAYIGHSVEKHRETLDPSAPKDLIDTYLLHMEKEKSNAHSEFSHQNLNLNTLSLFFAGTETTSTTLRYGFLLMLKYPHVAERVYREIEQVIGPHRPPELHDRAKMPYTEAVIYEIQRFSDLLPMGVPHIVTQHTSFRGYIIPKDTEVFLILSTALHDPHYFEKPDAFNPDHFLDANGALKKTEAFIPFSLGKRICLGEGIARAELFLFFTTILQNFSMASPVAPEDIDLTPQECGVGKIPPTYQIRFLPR
The conditions noted are these: both, 15 min, pH 7.4.

Data set [2] deals with T1, CYP2B6. The data set is described as follows: biochemical.
Another data set addresses CYP2C9 (Homo sapiens, UniProt P11712). The data set is described as follows: CYP2C9 Inhibition (HLM, diclofenac substrate).
The next data set deals with T2, CYP2C8 (Homo sapiens, UniProt P10632).
T2 sequence (P10632 1-490): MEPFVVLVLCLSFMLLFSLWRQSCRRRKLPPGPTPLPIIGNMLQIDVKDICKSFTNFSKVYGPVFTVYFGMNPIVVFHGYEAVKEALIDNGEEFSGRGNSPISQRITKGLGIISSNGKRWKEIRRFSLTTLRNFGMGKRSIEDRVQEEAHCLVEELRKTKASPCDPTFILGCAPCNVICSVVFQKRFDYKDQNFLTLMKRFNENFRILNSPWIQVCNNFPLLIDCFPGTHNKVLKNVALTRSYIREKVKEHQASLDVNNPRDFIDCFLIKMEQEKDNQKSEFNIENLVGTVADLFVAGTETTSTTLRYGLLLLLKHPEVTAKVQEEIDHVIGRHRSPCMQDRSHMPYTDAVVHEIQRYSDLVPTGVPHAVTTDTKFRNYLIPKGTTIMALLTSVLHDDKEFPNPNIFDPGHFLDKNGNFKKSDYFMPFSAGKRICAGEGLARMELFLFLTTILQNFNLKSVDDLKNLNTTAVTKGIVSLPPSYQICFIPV
Nature of the data set: CYP2C8 Inhibition (HLM, paclitaxel substrate).

CYP2C19, sequence (P33261 whole entry): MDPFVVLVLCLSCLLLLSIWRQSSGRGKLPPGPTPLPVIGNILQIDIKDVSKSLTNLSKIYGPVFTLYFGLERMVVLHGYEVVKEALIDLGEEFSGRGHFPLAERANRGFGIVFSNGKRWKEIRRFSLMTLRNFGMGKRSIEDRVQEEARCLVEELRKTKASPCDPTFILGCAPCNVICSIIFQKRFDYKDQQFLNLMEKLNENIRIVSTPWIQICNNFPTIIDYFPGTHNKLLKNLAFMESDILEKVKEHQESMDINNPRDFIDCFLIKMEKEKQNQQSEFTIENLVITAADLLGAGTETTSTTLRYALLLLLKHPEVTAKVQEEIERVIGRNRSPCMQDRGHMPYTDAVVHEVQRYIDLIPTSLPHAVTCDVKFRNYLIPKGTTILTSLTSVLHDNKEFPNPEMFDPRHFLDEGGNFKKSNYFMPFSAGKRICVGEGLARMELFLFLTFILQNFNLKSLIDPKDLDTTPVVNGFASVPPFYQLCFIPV
CYP2C9, sequence (P11712 whole entry): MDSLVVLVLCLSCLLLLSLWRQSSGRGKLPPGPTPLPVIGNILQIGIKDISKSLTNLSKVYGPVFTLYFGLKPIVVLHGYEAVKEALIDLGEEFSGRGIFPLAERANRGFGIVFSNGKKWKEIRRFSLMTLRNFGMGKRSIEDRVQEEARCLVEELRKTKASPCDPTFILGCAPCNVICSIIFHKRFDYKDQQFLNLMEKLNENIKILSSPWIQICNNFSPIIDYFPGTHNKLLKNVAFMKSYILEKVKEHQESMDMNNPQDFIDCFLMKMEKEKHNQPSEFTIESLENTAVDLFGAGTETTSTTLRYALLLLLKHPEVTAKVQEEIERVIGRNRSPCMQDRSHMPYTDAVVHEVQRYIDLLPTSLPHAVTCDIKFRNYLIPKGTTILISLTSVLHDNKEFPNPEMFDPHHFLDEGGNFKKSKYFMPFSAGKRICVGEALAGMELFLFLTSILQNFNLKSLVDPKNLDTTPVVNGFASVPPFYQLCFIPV

Regarding `CCN(CC)CC#CCOC(=O)C(O)(c1ccccc1)C1CCCCC1` (centres unmarked) [Oxybutynin], the nH on CYP2C19 amounted to 1.1.
As for `COC(=O)[C@H](c1ccccc1Cl)N1CCc2sccc2C1` [Clopidogrel], the nH at CYP2B6 [1] is recorded as 2.7. This compound also came in with a half-inhibitory concentration (IC50) against CYP2B6 [2] of 640 nM.
As to `Nc1ccc(S(=O)(=O)Nc2ccnn2-c2ccccc2)cc1` [Sulfaphenazole], on CYP2C9, the nH is 1.1.
`COC(=O)C1=C(C)NC(C)=C(C(=O)OCCN(C)Cc2ccccc2)C1c1cccc([N+](=O)[O-])c1` (centres unmarked) [Nicardipine]: the nH at CYP2C8 came to 1.2.

By IC50 is commonly meant the concentration that gives 50% inhibition. The low end stands for inhibition by little substance, the high end for a need for much substance.
